Two compounds from patent publication US20080286335A1, “Enhancement Of The Calcium Sensing Receptor” (Smith & Nephew, Inc., priority 2007, published 2008) can be followed below.

The test system of assay [1] is mouse calvarial cells. Nature of the assay: Alizarin red staining (calcium deposition) of mouse calvarial cell monolayers. The following applies: 2.5 mM amino acid with 2.5 mM CaCl2, 2 week period, compared to 2.5 mM CaCl2 alone, FIG. 1 and 2. Format: cell-based. The procedure: (§1) Osteoblastic cells were isolated from mouse calvarial tissue dissected from the heads of 2-3 day old freshly slaughtered mice pups using sequential enzymatic digestion. Cells were maintained in DMEM+10% Foetal Bovine Serum (FBS) at 37° C./5% CO2 in order to expand the cells before experimental use. Human dermal fibroblasts (HDFs) were used in experiments as an additional negative control.
Cells were seeded into 24 well plates at a concentration of 5×10^4 cells/well in αMEM+10% FBS (n=6). Experiments were set up to examine the amount of mineralisation at two different concentrations of calcium chloride (CaCl2) (1.8 mM and 2.5 mM) with and without L-amino acids (L-phenylalanine and L-tryptophan at 2.5 mM). Cells were cultured at 37° C./5% CO2 with media changes three times a week. After 2 weeks and 3 weeks, the monolayers were stained to show the extent of mineralisation using Alizarin red (calcium deposition) and after 4 weeks with Von Kossa (mineralised matrix). Alizarin red stained monolayers were destained and the stain quantified spectophotometrically, whilst the Von Kossa staining was quantified using image analysis.

Assay [2] relates to mouse calvarial cells. Description: Von Kossa staining (mineralised matrix) of mouse calvarial cell monolayers. In kind it is cell-based. The following applies: compared to 2.5 mM CaCl2 alone. As for the experimental part: as §1
Cells were seeded into 24 well plates at a concentration of 5×10^4 cells/well in αMEM+10% FBS (n=6). Experiments were set up to examine the amount of mineralisation at two different concentrations of calcium chloride (CaCl2) (1.8 mM and 2.5 mM) with and without L-amino acids (L-phenylalanine and L-tryptophan at 2.5 mM). Cells were cultured at 37° C./5% CO2 with media changes three times a week. […] Alizarin red stained monolayers were destained and the stain quantified spectophotometrically, whilst the Von Kossa staining was quantified using image analysis.

On to `N[C@@H](Cc1ccccc1)C(=O)O` [L-Phe, L-phenylalanine], for which the calcium deposition result with mouse calvarial cells [1] is listed as “significantly increases”. The “amount of mineralised matrix” value is listed as “significantly increases” in the assay with mouse calvarial cells [2] (2.5 mM L-Phe with 2.5 mM CaCl2, 2 week period, Von Kossa image analysis, FIG. 4) and “significantly increases” in the assay with mouse calvarial cells [2] (2.5 mM L-Phe with 2.5 mM CaCl2, 4 week period, Von Kossa staining, FIG. 3).
Consider `N[C@@H](Cc1c[nH]c2ccccc12)C(=O)O` [L-Trp, L-tryptophan], for which the calcium deposition result with mouse calvarial cells [1] is “significantly increases”.
